Measured values: patent publication US20080032978A1, “SOLUBLE EPOXIDE HYDROLASE INHIBITORS” (Arete Therapeutics, Inc., priority 2006, published 2008)

Legend:
[1] = test system: soluble epoxide hydrolase (sEH); experiment: Fluorescent assay for mouse and human soluble epoxide hydrolase (CMNPC substrate); assay type: biochemical
From the text: Fluorescent Assay for Mouse and Human Soluble Epoxide Hydrolase Recombinant mouse sEH (MsEH) and human sEH (HsEH) were produced in a baculovirus expression system as previously reported. Grant et al., J. Biol. Chem., 268:17628-17633 (1993); Beetham et al., Arch. Biochem. Biophys., 305:197-201 (1993). The expressed proteins were purified from cell lysate by affinity chromatography. Wixtrom et al., Anal. […] Protein concentration was quantified using the Pierce BCA assay using bovine serum albumin as the calibrating standard. […] Solutions: Bis/Tris HCl 25 mM 7.0 containing 0.1 mg/mL of BSA (buffer […] at 0.25 mM in DMSO. Mother solution of enzyme in buffer A (Mouse sEH at 6 μg/mL and Human sEH at 5 μg/mL). Inhibitor dissolved in DMSO at the appropriate concentration. Protocol: In a black 96 well plate, fill all the wells with 150 μL of buffer A. Add 2 μL of DMSO in well A2 and A3, and then add 2 μL of inhibitor solution in A1 and A4 through A12. Add 150 μL of buffer A in a row A, then mix several time and transfer 150 μL to row B. Repeat this operation up to row H. The 150 μL removed from row H go to the trash. Add 20 μL of buffer A in column 1 and 2, then add 20 μL of enzyme solution to column 3 to 12. Incubate the plate for 5 minutes in the plate reader at 30° C. During incubation prepare the working solution of substrate by mixing 3.68 mL of buffer A (4×0.920 mL) with 266 μL (2×133 μL) of substrate solution). At t=0, add 30 μL of working substrate solution with multi-channel pipette labeled “Briggs 303” and start the reading ([S]final: 5 μM). Read with ex: 330 nm (20 nm) and em: 465 nm (20 nm) every 30 second for 10 minutes. The velocities are used to analyze and calculate the IC50s.

Structure (SMILES)	% I ([1]; Conc of I 500 nM)	melting point	% I ([1]; Conc of I 50 nM)	% I ([1]; Conc of I 5000 nM)
CN(C)CCN(C)C(=O)c1ccc(NC(=O)NC23CC4CC(CC(C4)C2)C3)cc1 [Compound 37, 4-(3-Adamantan-1-yl-ureido)-N-(2-dimethylamino-ethyl)-N-methyl-benzamide]	88%	150 to 156 °C		
COCCN1CCN(C(=O)c2ccc(NC(=O)Nc3ccc(OC(F)(F)F)cc3)cc2)CC1 [Compound 28, 1-{4-[4-(2-Methoxy-ethyl)-piperazine-1-carbonyl]-phenyl}-3-(4-trifluoromethoxy-phenyl)-urea]		235 to 240 °C	91%	
COCCN1CCN(C(=O)c2ccc(NC(=O)NC34CC5CC(CC(C5)C3)C4)cc2)CC1 [Compound 4, 1-Adamantan-1-yl-3-{4-[4-(2-methoxy-ethyl)-piperazine-1-carbonyl]-phenyl}-urea]	96%	191 to 194 °C		
O=C(Nc1ccc(C(=O)N2CCC(C(=O)O)CC2)cc1)NC12CC3CC(CC(C3)C1)C2 [Compound 12, 1-[4-(3-Adamantan-1-yl-ureido)-benzoyl]-piperidine-4-carboxylic acid]		272 to 275 °C		99%
O=C(NC1CCCCC1)NC1CCC(C(=O)N2CCOCC2)CC1 (centres unmarked) [Compound 40, 1-Cyclohexyl-3-[4-(morpholine-4-carbonyl)-cyclohexyl]-urea]	92%	159 to 163 °C		
CN(C)CCN(C)C(=O)c1cccc(NC(=O)NC23CC4CC(CC(C4)C2)C3)c1 [Compound 38, 3-(3-Adamantan-1-yl-ureido)-N-(2-dimethylamino-ethyl)-N-methyl-benzamide]	81%	89 to 94 °C		
O=C(Nc1ccc(Cl)cc1)Nc1ccc(C(=O)N2CCC(C(=O)O)CC2)cc1 [Compound 9, 1-{4-[3-(4-Chloro-phenyl)-ureido]-benzoyl}-piperidine-4-carboxylic acid]	64%	238 to 241 °C		
COCCN1CCN(C(=O)c2ccc(NC(=O)Nc3ccc(F)cc3)cc2)CC1 [Compound 25, 1-(4-Fluoro-phenyl)-3-{4-[4-(2-methoxy-ethyl)-piperazine-1-carbonyl]-phenyl}-urea]	77%	248 to 250 °C		
CN(CC(=O)N1CCOCC1)C(=O)c1ccc(NC(=O)Nc2ccc(C(F)(F)F)cc2)cc1 [Compound 39, N-Methyl-N-(2-morpholin-4-yl-2-oxo-ethyl)-4-[3-(4-trifluoromethyl-phenyl)-ureido]-benzamide]	86%	226 to 233 °C		
CN(CC(=O)O)C(=O)C1CCC(NC(=O)NC23CC4CC(CC(C4)C2)C3)CC1 (centres unmarked) [Compound 36, {[4-(3-Adamantan-1-yl-ureido)-cyclohexanecarbonyl]-methyl-amino}-acetic acid]	95%	236 to 240 °C		
CN1CCN(C(=O)c2ccc(NC(=O)NC34CC5CC(CC(C5)C3)C4)cc2)CC1 [Compound 5, 1-Adamantan-1-yl-3-[4-(4-methyl-piperazine-1-carbonyl)-phenyl]-urea]	96%	190 to 196 °C		
O=C(Nc1ccc(C(F)(F)F)cc1)Nc1cccc(C(=O)N2CCC(C(=O)O)CC2)c1 [Compound 29, 1-{3-[3-(4-Trifluoromethyl-phenyl)-ureido]-benzoyl}-piperidine-4-carboxylic acid]	94%	193 to 197 °C		
O=C(NC1CCC(C(=O)N2CCOCC2)CC1)NC12CC3CC(CC(C3)C1)C2 (centres unmarked) [Compound 11, 1-Adamantan-1-yl-3-[4-(morpholine-4-carbonyl)-cyclohexyl]-urea]	96%	128 to 131 °C		
O=C(Nc1ccc(C(F)(F)F)cc1)Nc1cccc(C(=O)N2CCOCC2)c1 [Compound 15, 1-[3-(Morpholine-4-carbonyl)-phenyl]-3-(4-trifluoromethyl-phenyl)-urea]	99%			
CN1CCN(C(=O)c2cc(NC(=O)Nc3ccc(C(F)(F)F)cc3)ccc2F)CC1 [Compound 33, 1-[4-Fluoro-3-(4-methyl-piperazine-1-carbonyl)-phenyl]-3-(4-trifluoromethyl-phenyl)-urea]	95%			
O=C(Nc1ccc(Cl)cc1)Nc1cccc(C(=O)N2CCOCC2)c1 [Compound 3, 1-(4-Chloro-phenyl)-3-[3-(morpholine-4-carbonyl)-phenyl]-urea]	88%			
O=C(Nc1ccc(OC(F)(F)F)cc1)Nc1ccc(C(=O)N2CCOCC2)cc1 [Compound 26, 1-[4-(Morpholine-4-carbonyl)-phenyl]-3-(4-trifluoromethoxy-phenyl)-urea]			88%	
O=C(Nc1ccc(Cl)cc1)Nc1cccc(C(=O)N2CCC(N3CCOCC3)CC2)c1 [Compound 10, 1-(4-Chloro-phenyl)-3-[3-(4-morpholin-4-yl-piperidine-1-carbonyl)-phenyl]-urea]	87%			
O=C(Nc1ccc(F)cc1)Nc1ccc(C(=O)N2CCOCC2)cc1 [Compound 23, 1-(4-Fluoro-phenyl)-3-[4-(morpholine-4-carbonyl)-phenyl]-urea]	69%			
CC(C)N1CCN(C(=O)c2cccc(NC(=O)Nc3ccc(C(F)(F)F)cc3)c2)CC1 [Compound 35, 1-[3-(4-Isopropyl-piperazine-1-carbonyl)-phenyl]-3-(4-trifluoromethyl-phenyl)-urea]	92%			
O=C(Nc1ccc(Cl)cc1)Nc1ccc(C(=O)N2CCOCC2)c(F)c1 [Compound 14, 1-(4-Chloro-phenyl)-3-[3-fluoro-4-(morpholine-4-carbonyl)-phenyl]-urea]			74%	
CC(C)N1CCN(C(=O)c2ccc(NC(=O)Nc3ccc(C(F)(F)F)cc3)cc2)CC1 [Compound 34, 1-[4-(4-Isopropyl-piperazine-1-carbonyl)-phenyl]-3-(4-trifluoromethyl-phenyl)-urea]			93%	
